Experiments:
[1] = tested on: bleo-induced lung injury in the mouse; experiment: Lung desmosine (elastin) after bleo-induced lung injury; assay type: in vivo; conditions: 50 μg Bleo intranasally; 10 mM peptide in 0.1 ml osmotic pump i.p. one day later; lungs after 21 days
Procedure: FIGS. 10A and 10B are graphs showing the effect of PP-1 on fibrosis following bleo-induced lung injury in the mouse. […] 24 h after bleo, 0.1 ml osmotic pump filled with 10 mM PP-1 (designated “Bleo+PP” in Figures) or CP1 control scrambled peptide (“Bleo+CP1”) were implanted intraperitoneally. Lungs were harvested after 21 days, homogenized and the homogenates were subjected to the analysis of hydroxyproline or desmosine levels.
Lungs were harvested after 21 days, homogenized and the homogenates were subjected to the analysis of hydroxyproline as above (FIG. 10A) or desmosine (FIG. 10B). The effect of PP-1 on fibrosis in bleo-induced mouse lung injury was evaluated. Mice were treated with saline or 50 μg Bleo intranasally were implanted one day later with, 0.1 ml osmotic pumps i.p. The pumps were filled with either 10 mM (2.92 mg/100 μl) PP-1 (“Bleo+PP-1”) or control scrambled peptide CP-1 (“Bleo+CP-1”).

[2] = tested on: bleo-induced collagen deposition in mouse lung; experiment: Mason's Trichrome stain for collagen of lung sections of bleo-treated mice; assay type: in vivo; conditions: for Collagen content in lung section: bleo-treated animals, peptide one day after bleo, day 21, trichrome stain
Procedure: FIG. 13 is a set of photomicrographs showing that PP-1 prevents bleo-induced collagen deposition in mouse lung. Mice were treated with bleo (50 μg/ml) by intranasal instillation followed by treatment with PP-1 (10 nM) or control peptide CP-1 on day 2. Lungs were excised on day 21, inflated and fixed in formalin, a sectioned into […] sections which were subjected to Mason's Trichrome stain (a three-color stain that stains cell nuclei red, collagen green or blue, and cytoplasm red). Blue staining indicates collagen deposition in bleo-treated lung sections.
FIGS. 14A & 14B is a series of photomicrographs of lung epithelial tissue stained with Mason's trichrome stain for collagen (FIG. 10A) and by TUNEL staining for apoptosis (FIG. 10B). Bleo-treated animals were instilled with either PP-1, PP-2 or control peptide CP-1 one day after bleo treatment, The lungs were removed on day 21, subjected to the staining procedures and examined for collagen accumulation or apoptosis.
Collagen deposition in mouse lung after bleo treatment was investigated. Mice were treated with bleo (50 μg/ml) by intranasal instillation followed by treatment with PP-1 (10 nM) (designated as PP in Figure) or control peptide CP-1 (designated CP in FIG. 13) on day 2. Lungs were excised on day 21, inflated and fixed in formalin, a sectioned into […] sections which were subjected to Mason's Trichrome stain (a three-color stain that stains cell nuclei red, collagen green or blue, and cytoplasm red).
A comparison was made of normal and bleo-treated lung, and the effect of PP-1 and PP-2 on the bleo-treated lungs were examined. Animals were treated with bleo and peptides as above. Lung tissue was removed at day 21 and stained with Mason's trichrome stain for collagen and subjected to TUNEL staining for apoptosis.

[3] = tested on: bleomycin-induced lung epithelial cell (LEC) apoptosis; experiment: TUNEL staining for apoptosis of lung sections of bleo-treated mice; assay type: in vivo, mouse; conditions: for Lung epithelial cell apoptosis: appearance of cells / Lung epithelial cell apoptosis: cell death: bleo-treated animals, peptide one day after bleo; for Lung epithelial cell apoptosis: appearance of cells: lung tissue day 21; for Lung epithelial cell apoptosis: cell death: lung tissue day 21, TUNEL; for apoptosis (TUNEL positive cells): peptide 4.5 μM i.p. on day 1 and 2, bleomycin 40 μg/50 μl intranasal on day 2, 24, 48 and 72 h
Procedure: The mice were sacrificed 24, 48 and 72 h later. Lungs were excised, inflated and fixed in formalin, and […] sections were analyzed by TUNEL staining. […]

[4] = tested on: Src kinase; conditions: Beas2B cells, bleo 40 μg/ml, 24 h, Western blot
Procedure: Cell lysates were analyzed for activating tyrosine (Y418) phosphorylation and inhibitory tyrosine (Y529) phosphorylation by Western blotting using phospho-specific antibodies. The same membrane was stripped and analyzed for total Src (Src-2) kinase and β-actin expression by Western blotting using specific antibodies.

[5] = tested on: uPAR; experiment: IHC of lung tissue of bleo-treated mice: uPAR; assay type: in vivo, mouse; conditions: bleomycin-treated mice, 48-72 h
Procedure: (§1) For immunohistochemical (IHC) analysis, lungs were inflated at constant pressure of 20 cm H2O, removed and fixed overnight in 2% paraformaldehyde in PBS. Tissue was dehydrated by passage through a standard alcohol series and was embedded in paraffin. 5 μm sections were deparaffinized with xylene followed by incubation with 100% and 95% alcohol. After 10 min of antigen retrieval, the slides were incubated with H2O2 for 30 min to quench endogenous peroxidase. Slides were incubated overnight with the respective antibodies in PBS containing 0.1% Tween 20 and further processed using Lab vision kit (Freemont Calif.).
(§2) An IHC study was conducted to analyze lung tissue for expression p53, uPA, uPAR, PAI-1 and cleaved caspase 3 (Table 2). […] These IHC observations were confirmed by Western blotting (see Example II and FIG. 5).

[6] = tested on: uPA; experiment: IHC of lung tissue of bleo-treated mice: uPA; assay type: in vivo, mouse; conditions: bleomycin-treated mice, 48-72 h
Procedure: as §1, §2

[7] = tested on: p53; experiment: IHC of lung tissue of bleo-treated mice: p53; assay type: in vivo, mouse; conditions: bleomycin-treated mice, 24-72 h
Procedure: as §1, §2

[8] = tested on: uPAR; experiment: Western blot of lung membrane proteins of bleo-treated mice: uPAR; assay type: in vivo, mouse; conditions: 40 μg bleomycin intranasally, 10 mM peptide i.p. by 0.1 ml osmotic pump after 24 h, day 7
Procedure: Mice were treated intranasally with 50 μl saline (SAL; control) or an equal volume of a 40 μg bleomycin solution (Bleo). After 24 h, 10 mM PP-1 (“Bleo+PP-1”) or control peptide (Bleo+CP-1) were given intraperitoneally using a 0.1 ml osmotic pump. Lungs were excised on day 7, bronchoalveolar lavage (BAL) fluid (“B”), lung homogenates (“H”) and membrane proteins (uPAR) were analyzed by Western blotting using antibodies specific for the murine proteins. (The same blot (“H”) was then stripped and analyzed for β-actin confirm equivalent loading of the lanes)
Mice were treated intranasally with 50 μl saline or an equal volume of a 40 μg bleomycin solution. After 24 h, 10 mM PP-1 or the same concentration of control peptide CP-1 were given intraperitoneally using a 0.1 ml osmotic pump. Lungs were excised on day 7.
After preparation of the cytosolic extract, above, the pellet obtained after the initial centrifugation was resuspended in a membrane extraction buffer containing β-D-glucopyranoside and the suspension was homogenized for 5 to 10 min. […] The resulting clarified supernatant was analyzed for uPAR expression by Western blotting with anti-uPAR antibody and detected by ECL.
Mice were treated intranasally with saline (controls) are indicated (SAL). […] (The same blot (H) was later stripped and analyzed for β-actin confirm equivalent loading of the lanes)

[9] = conclusion from Table 3, day 21

| Substance | lung desmosine levels [1] | Collagen content in lung section [2] | Lung epithelial cell apoptosis: appearance of cells [3] | Lung epithelial cell apoptosis: cell death [3] | apoptosis (TUNEL positive cells) [3] | Src kinase activation (Y418 / Y529 phosphorylation) [4] | uPAR levels in lung tissue (IHC) [5] | uPA levels in lung tissue (IHC) [6] | p53 expression in lung tissue (IHC) [7] | uPAR levels in lung (membrane proteins) [8] | bleo-induced collagen deposition (Mason's Trichrome stain) ([2]; bleo 50 μg/ml intranasal, PP-1 (10 nM) on day 2, lungs day 21) | development of bleo-induced lung fibrosis [2, 9] | bleo-induced mouse lung injury (TUNEL staining for apoptosis) ([3]; bleo 50 μg/ml intranasal, peptide intranasally 3.35 μM (375 μg/50 μl) on day 2, 4 and 6, lungs after 21 days) | protection of LECs from bleo-induced lung injury [3, 9] | bleo-induced LEC apoptosis (apoptotic scores) ([3]; i.p. 0.1 ml osmotic minipump, 10 mM peptide, one day after intranasal bleo, lungs after 16 days) |
| --- | --- | --- | --- | --- | --- | --- | --- | --- | --- | --- | --- | --- | --- | --- | --- |
| Bleomycin | significant increase in lung hydroxyproline or desmosine levels | Increased | Fibrotic cells, | 80% cell death | increased apoptosis (TUNEL positive cells) as early as 24 h after exposure | Src kinase activation through phosphorylation of Src Y418 | uPA and uPAR levels fell between 48-72 h of bleomycin exposure | uPA and uPAR levels fell between 48-72 h of bleomycin exposure | induced p53 expression beginning at 48 h and increasing up to 72 h | suppression | – | – | – | – | – |
| DGIWKASFTTFTVTKYWFYR [PP-1, residues 82-101 of human Cav-1, the caveolin-1 scaffolding domain] | significantly reduced, to normal levels | Normal | No fibrosis, | 12% cell | reversed bleomycin-induced apoptosis | inhibited bleo-induced activation of Src Y418 through phosphorylation of Src Y529 | reversed this suppression | reversed this suppression | blocked bleomycin induced p53 expression | enhanced the suppressed uPA and uPAR levels | prevented bleo-induced collagen deposition | prevented the development of bleo-induced lung fibrosis | prevented bleo-induced mouse lung injury in vivo | > 90% | protect against bleo-induced LEC apoptosis |

Source: patent US8697840B2, “Peptide inhibition of lung epithelial apoptosis and pulmonary fibrosis” (Board of Regents, The University of Texas System, priority 2008, dated 2014)
